Data on two molecules can be found in patent publication US7867993B2, “Preparation containing oxidized flavonoid derivatives” (Merck Patent GmbH, priority 2005, dated 2011).

Data set [1] is described as follows: Solubility in water and in ethanol. Type of data set: physicochemical. The source says: The solubilities of quercetin in water and in ethanol are, by contrast, only 0.04 g/l and 15.8 g/l respectively.
For data set [2] the following is noted: compared with the other investigated hydroxyflavones, over the entire pH range; cited from earlier work.

≈ marks a conversion by molar mass, not a printed value. Read-outs that look alike come from different tables or passages of the source.

As for `CCCCOC1(c2ccc(O)c(O)c2)Oc2cc(O)cc(O)c2C(=O)C1(O)O` (stereo not shown) [2-butoxy-2-(3,4-dihydroxyphenyl)-3,3,5,7-tetrahydroxychroman-4-one], the solubility came to 855 mg/mL (≈ 2180 mM) in data set [1] (25 °C, organic solvent or mixture) and 2.9 mg/mL (≈ 7.39 mM) in data set [1] (25 °C, water).

`O=c1c(O)c(-c2ccc(O)c(O)c2)oc2cc(O)cc(O)c12` [quercetin, 3,3′,4′,5,7-pentahydroxyflavone]: in data set [1] (organic solvent or mixture, at 25° C. in ethanol, read-out: solubility in ethanol), the solubility was 15.8 mg/mL (≈ 52.3 mM). Besides, the antioxidative action result in data set [2] was “highest activity”.
